These results are taken from EP1103545B1, “2-(3,5-Bis-trifluoromethyl-phenyl)-N-methyl-N-(6-morpholin-4-yl-4-o-tolyl-pyridin-3-yl)-isobutyramide” (F. HOFFMANN-LA ROCHE AG, priority 1999, dated 2001).

One test relates to emesis induced in Ferets. Description: Emesis induced by various emetogens. In kind it is in vivo.
For test [1], the system named is foot-tapping behaviour induced in Gerbils. Briefly: Foot-tapping behaviour induced by i.c.v. injection of an NK1 receptor agonist. In kind it is in vivo.
In test [2] the target is T1, recombinant human NK1 receptor (Homo sapiens, UniProt P25103).
T1 construct: expressed in transfected cells; host or cells: CHO cells
T1 sequence (P25103 whole entry): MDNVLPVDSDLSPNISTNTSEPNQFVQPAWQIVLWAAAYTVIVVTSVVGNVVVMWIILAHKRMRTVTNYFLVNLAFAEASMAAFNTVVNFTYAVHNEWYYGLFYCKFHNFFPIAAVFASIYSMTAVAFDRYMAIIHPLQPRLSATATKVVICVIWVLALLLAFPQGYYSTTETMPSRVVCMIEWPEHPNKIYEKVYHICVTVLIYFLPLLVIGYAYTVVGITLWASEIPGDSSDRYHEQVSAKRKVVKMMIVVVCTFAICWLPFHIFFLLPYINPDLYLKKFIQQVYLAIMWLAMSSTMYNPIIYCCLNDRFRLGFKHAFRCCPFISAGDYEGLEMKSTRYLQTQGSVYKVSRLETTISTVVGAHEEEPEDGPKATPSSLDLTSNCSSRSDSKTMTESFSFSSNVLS
Briefly: Substance P induced Ca2+ influx in CHO cells (FLIPR), Schild analysis. In kind it is cell-based. An excerpt: The activity in vitro was examined by studying its effect on substance P induced Ca^2+ influxes in CHO cells expressing the recombinant human NK1 receptor. In these cells, substance P causes a concentration dependent influx of Ca^2+ which can be measured using FLIPR technology.

The test system of test [3] is motion sickness in the suncus murinus. Briefly: Model of motion sickness. Particulars: po. In kind it is in vivo.
A further test concerns the target NK3 receptors (Homo sapiens, UniProt P29371). The settings on record: binding.
The next test has as its target NK2 receptors (Homo sapiens, UniProt P21452). Particulars: binding.

Chain of NK2 receptors (P21452 whole entry): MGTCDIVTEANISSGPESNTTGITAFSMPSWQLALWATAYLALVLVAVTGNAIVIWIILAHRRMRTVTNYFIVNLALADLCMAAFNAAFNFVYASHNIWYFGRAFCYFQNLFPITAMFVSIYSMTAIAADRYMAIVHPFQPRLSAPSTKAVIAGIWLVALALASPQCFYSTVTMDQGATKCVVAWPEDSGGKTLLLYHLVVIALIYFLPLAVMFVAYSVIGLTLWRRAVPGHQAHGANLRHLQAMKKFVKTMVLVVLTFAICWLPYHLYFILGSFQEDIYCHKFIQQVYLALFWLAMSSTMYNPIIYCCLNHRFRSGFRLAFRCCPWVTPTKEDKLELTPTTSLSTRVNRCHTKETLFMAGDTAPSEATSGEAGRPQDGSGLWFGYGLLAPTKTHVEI
Chain of NK3 receptors (P29371 whole entry): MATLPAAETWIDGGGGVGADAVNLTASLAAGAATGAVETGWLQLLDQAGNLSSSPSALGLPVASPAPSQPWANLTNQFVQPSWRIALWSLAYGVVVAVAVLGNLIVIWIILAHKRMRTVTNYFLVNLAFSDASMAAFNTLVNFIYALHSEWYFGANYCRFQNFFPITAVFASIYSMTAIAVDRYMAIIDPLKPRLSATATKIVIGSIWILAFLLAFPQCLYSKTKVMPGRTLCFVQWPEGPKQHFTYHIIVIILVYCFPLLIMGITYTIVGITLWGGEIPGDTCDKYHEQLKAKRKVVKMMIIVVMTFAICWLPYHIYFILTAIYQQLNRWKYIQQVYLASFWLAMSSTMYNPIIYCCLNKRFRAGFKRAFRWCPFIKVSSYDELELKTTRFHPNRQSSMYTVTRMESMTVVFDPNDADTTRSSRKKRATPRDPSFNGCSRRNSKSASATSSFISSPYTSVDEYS

For `Cc1ccccc1-c1cc(N2CCOCC2)ncc1N(C)C(=O)C(C)(C)c1cc(C(F)(F)F)cc(C(F)(F)F)c1` [compound of formula I, 2-(3,5-Bis-trifluoromethyl-phenyl)-N-methyl-N-(6-morpholin-4-yl-4-o-tolyl-pyridin-3-yl)-isobutyramide], the “selectivity for the NK1 receptor compared to over 50 other binding sites” value is listed as “over 2 orders of magnitude”. In the test with emesis induced in Ferets (0.3 mg/kg p.o. 2 hours before emetogen (apomorphine, morphine, ipecacuanha, cisplatin, CuSO4)), the “emesis induced by all emetogens” value is given as “completely blocked”. In the test with emesis induced in Ferets (Mustela putorius, po, apomorphine-induced emesis), this molecule came in with an ED50 of 0.1 mg/kg. In addition, the “total plasma concentration required to completely block the foot-tapping behaviour” value in test [1] (Gerbils) was 10 ng/mL. Also, the functional half life in test [1] (Gerbils, persistence of antagonism of foot-tapping) was 8 h. The ED50 in test [1] (Meriones unguiculatus, po, read-out: dose calculated to inhibit 50 % of the foot-tapping behaviour) was 0.2 mg/kg. Further, the “slope of the Schild regression” value in test [2] was determined as 1.1. For the same molecule, the Kb in test [2] (Schild plot, read-out: antagonist affinity (pA2) (converted)) was 1.26 nM. Besides, the ED50 in test [3] was determined as 0.2 mg/kg. Moreover, the “selectivity for the NK1 receptor compared to NK3 receptors” value on NK3 receptors is on record as “over 2 orders of magnitude”. Besides, the “selectivity for the NK1 receptor compared to NK2 receptors” value on NK2 receptors was “over 2 orders of magnitude”.
